Results taken from article PMC11251039, “Harnessing cholesterol uptake of malaria parasites for therapeutic applications” (EMBO Molecular Medicine, 2024).
pIC50: −log10 of the molar value. Values joined by “and” are separate entries in the source; they are usually repeats but may differ in a detail not shown here. Identical values can stand only once.

Key:
[1] = system: P. falciparum stage V gametocytes; experiment: P. falciparum gametocyte viability assay (MitoTracker, flow cytometry), stage V; assay type: cell-based, Plasmodium falciparum; settings: 48 h; for Gametocyte stage V viability, percentage of control: replicate values, source data Fig. 2D
Method: (§1) Gametocyte assays commenced seven days (stage III–IV) or ten days (stage V) post-invasion. […]
(§2) Plasmodium falciparum Gametocyte Viability Assays:
(§3) Asexual P. falciparum parasites were induced to form gametocytes as described (21).
(§4) Synchronized trophozoite-stage parasites at 2% parasitaemia were incubated overnight and […]
(§5) haematocrit maintained at 4%. On the subsequent day (designated as day 0) of gametocytogenesis, the culture containing early ring-stage parasites was first purified by sorbitol synchronisation to remove asynchronous trophozoites, and passed through a magnetic field in a sterile MACS® column in a SuperMACSTM II magnet to remove remaining late-stage parasites or later-stage gametocytes (negative selection). The culture medium was supplemented with 50 mM N-acetyl-D-glucosamine to inhibit asexual parasite proliferation, and changed daily. Sorbitol treatment was performed on Day 1, 5, and 6 to further remove asexual parasites. Gametocytes were magnetically enriched (positive selection) in a sterile column with a SuperMACSTM II magnet and eluted in culture media with 50 mM N-acetyl-D-glucosamine. These gametocytes were incubated overnight at 37 °C under microaerophilic conditions, and purity was assessed by examination under a light microscope (400× […]
(§6) Gametocyte viability was assessed as described by Ridgway et al. (21) with modifications.
(§7) Compounds or solvent controls (DMSO) were serially diluted across 96-well plates in culture media supplemented with 50 mM N-acetyl-D-glucosamine. Culture media without compound was used as a negative control. […]
(§8) control to determine background gametocyte fluorescence. Stage III-IV gametocytes (Day 7) or stage V (day 10) gametocytes were concentrated and added to the plate with 200 µL per well. The plate was incubated for 48 hours at 37 °C under humid microaerophilic conditions.
(§9) Parasites were then stained with 500 nM MitoTrackerTM Deep Red FM and 5 μg/ml Hoechst […]
(§10) cytometer as described above. […]
(§11) excluded. Live (positive) and dead (negative) gametocytes were differentiated by […]
(§12) percentage of each was calculated. […]

[2] = system: human embryonic kidney cells (HEK293); experiment: Human embryonic kidney cell viability assay (MTT); assay type: cell-based; settings: Homo sapiens; 96 h, HEK293; read-out: IC50, human embryonic kidney cell inhibition (viability)
Method in brief: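 HEK293 cells, 5,000 per well, exposed to serially diluted compound for 96 hours; 10 µg/mL cycloheximide as background control. Viability by MTT (0.45 mg/mL, 2 h), SDS solubilisation, absorbance at 570 nm.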

[3] = system: human hepatoma cells (Huh7); experiment: Human hepatoma viability assay (CellTiter-Blue); assay type: cell-based; settings: for Huh7 viability, dose-response data points (Figure 3F): replicate data points
Method: Huh7 hepatoma viability assays were conducted in the same manner as the P. berghei assays, with metabolic capacity (indicating viability) measured with a fluorescence microplate reader after incubation with CellTiter-Blue® (Promega) for 3 h.
Appendix Fraser/Curtis et al. […]
Human Hepatoma Viability Assays:
The Huh7 hepatoma cell line (ATCC) was maintained under routine culture conditions in Dulbecco's Modified Eagle Medium (DMEM) containing 3.7 g/L NaHCO3 supplemented with 10% foetal bovine serum (FBS), 100 units/mL penicillin, and 100 μg/mL streptomycin at 37 °C in a humidified 5% CO2 incubator.
Viability assays were performed in parallel to the P. berghei growth inhibition. 10,000 Huh7 cells were seeded in 96-well and dark-sided microplates (Greiner Bio One) and cultured at 37°C, 5% CO2 and 80% humidity. The next day, the media was replaced with compounds or solvent controls (DMSO) serially diluted in culture media. Media was partially replaced with new drug dilutions over the following two days. After 48 hours, CellTiter-Blue® (Promega) was added according to the manufacturer’s instructions and incubated for 3 hours. Fluorescence intensity was measured with 530/25 ex and 590/20 em in a Synergy HTX plate reader (Agilent).

[4] = system: P. falciparum stage III–IV gametocytes; experiment: P. falciparum gametocyte viability assay (MitoTracker, flow cytometry), stage III-IV; assay type: cell-based, Plasmodium falciparum; settings: 48 h, replicate values, source data Fig. 2C
Method: as §1, §2, §3, §4, §5, §6, §7, §8, §9, §10, §11, §12

[5] = 1.562500000 uM, listed as HJB8a53, 1.5625 µM
[6] = 50.000000000 uM, listed as HJB8a53, 50 µM
[7] = 100.000000000 uM, listed as HJB8a53, 100 µM

CC(C)OC(=O)CCC(=O)O[C@H]1CC[C@H]2[C@@H]3CC=C4C[C@@H](O)CC[C@]4(C)[C@H]3CC[C@]12C [C-17-link]
Gametocyte stage V viability, percentage of control [1, 5]: 100.2% and 98.56% and 92.55% and 112.8% and 114.5% and 98.06% and 102.7% and 106.9% and 101% | Gametocyte stage V viability, percentage of control [1, 6]: 69.57% and 81.64% and 85.27% | Gametocyte stage V viability, percentage of control [1, 7]: 29.13% and 28.63% and 16.49% and 6.64% and 5.637% and 3.021% and 27.44% and 23.3% and 20.39% | viability at 6.25 µM ([1]; Plasmodium falciparum, read-out: Gametocyte stage V viability, percentage of control, 6.250000000 uM, 48 h, replicate values, source data Fig. 2D): 102% | viability at 12.5 µM ([1]; Plasmodium falciparum, read-out: Gametocyte stage V viability, percentage of control, 12.500000000 uM, 48 h, replicate values, source data Fig. 2D): 96.4% | pIC50 ([1]; Plasmodium falciparum, read-out: IC50, P. falciparum gametocyte stage V inhibition): 4.16 | pIC50 [2]: 4.36 | Huh7 viability, dose-response data points (Figure 3F) ([3]; 0.015241580 uM, listed as HJB8a53, 0.0152416 µM): 105.5 and 101.4 and 96.09 and 69.59 and 87 and 84.06 and 99.27 and 98.63 and 104.2 | Huh7 viability, dose-response data points (Figure 3F) ([3]; 0.045724740 uM, listed as HJB8a53, 0.0457247 µM): 109.3 and 93.77 and 96.82 and 77.36 and 91.83 and 83.31 and 95.97 and 106.5 and 102.9 | Huh7 viability, dose-response data points (Figure 3F) ([3]; 0.137174210 uM, listed as HJB8a53, 0.137174 µM): 96.08 and 92.35 and 97.06 and 75.41 and 90.39 and 89.79 and 95.73 and 112.9 and 104.7 | Huh7 viability, dose-response data points (Figure 3F) ([3]; 0.411522630 uM, listed as HJB8a53, 0.411523 µM): 96.93 and 97.72 and 96.92 and 63.65 and 105.3 and 104.5 and 106.5 and 105.9 and 105.2 | Huh7 viability, dose-response data points (Figure 3F) ([3]; 1.234567900 uM, listed as HJB8a53, 1.23457 µM): 100.4 and 99.21 and 88.68 and 67.97 and 84.85 and 96.13 and 101.8 and 95.29 and 104.3 | Huh7 viability, dose-response data points (Figure 3F) ([3]; 3.703703700 uM, listed as HJB8a53, 3.7037 µM): 100.3 and 96.61 and 91.24 and 63.53 and 95.92 and 87.81 and 99.75 and 109.9 and 102.3 | Huh7 viability, dose-response data points (Figure 3F) ([3]; 11.111111100 uM, listed as HJB8a53, 11.1111 µM): 99.33 and 105.1 and 91.64 and 77.62 and 94.71 and 84.32 and 94.43 and 111.6 and 102.6 | Huh7 viability, dose-response data points (Figure 3F) ([3]; 33.333333300 uM, listed as HJB8a53, 33.3333 µM): 96.9 and 100.5 and 93.64 and 75.36 and 80.99 and 87.75 and 88.68 and 89.18 and 95.7 | Huh7 viability, dose-response data points (Figure 3F) [3, 7]: 79.4 and 72.92 and 76.08 and 55.81 and 65.46 and 66.75 and 56.01 and 61.1 and 53.13 | Cytotoxicity to human hepatoma cells ([3]; 48 h, up to 100 µM): only modest cytotoxicity at high concentrations (>30 µM) | pIC50 ([3]; Homo sapiens, Huh-7, 48 h, read-out: IC50, human hepatoma inhibition (viability)): < 4.00 | Gametocyte stage III-IV viability, percentage of control [4, 5]: 101% and 107% and 102.8% and 99.18% (2×) and 99.4% and 102.9% and 101.9% and 93.96% and 97.92% and 98.49% | Gametocyte stage III-IV viability, percentage of control ([4]; 3.125000000 uM, listed as HJB8a53, 3.125 µM): 105.6% and 102% and 105.7% and 98.51% and 101.4% and 101.9% (2×) and 99.18% and 90.27% and 91.12% and 94.52% | Gametocyte stage III-IV viability, percentage of control ([4]; 6.250000000 uM, listed as HJB8a53, 6.25 µM): 99.6% and 103.8% and 106.8% and 101.2% and 104.3% and 103.3% and 101% and 100.8% and 93.96% and 96.79% and 98.77% | Gametocyte stage III-IV viability, percentage of control ([4]; 12.500000000 uM, listed as HJB8a53, 12.5 µM): 107.8% and 104% and 107.2% and 101.4% and 104.1% (2×) and 102.9% and 101% and 94.24% and 97.07% and 99.62% | Gametocyte stage III-IV viability, percentage of control ([4]; 25.000000000 uM, listed as HJB8a53, 25 µM): 98.8% and 98.2% and 107.2% and 103.9% and 105.9% and 102.5% and 102.3% and 103.5% and 88.86% and 88.57% and 89.42% | Gametocyte stage III-IV viability, percentage of control [4, 6]: 91.61% and 97.2% and 99.4% and 103.4% and 99.63% and 101% and 91.35% and 89.5% and 90.53% and 84.89% and 81.49% and 79.23% | Gametocyte stage III-IV viability, percentage of control [4, 7]: 87.57% and 87.36% and 83.7% and 97.18% and 90.82% and 86.32% and 9.91% and 5.752% and 9.494% and 21.99% and 34.89% and 34.32%
